{"source": "patent US20050113433A1", "about": "“Compositions of a phenyl acetic acid cyclooxygenase-2 selective inhibitor and a cholinergic agent for the treatment of reduced blood flow or trauma to the central nervous system” (Pharmacia Corporation, priority 2003, published 2005)", "origin": "cited, not measured here", "conditions": "administered to subjects following stroke", "data": [{"smiles": "C[N+](C)(C)CCOP(=O)(O)OP(=O)(O)OC[C@H]1O[C@@H](n2ccc(N)nc2=O)[C@H](O)[C@@H]1O", "note": "[citicoline]", "values": [{"measurement": "behavioral parameters", "result": "improvement in behavioral parameters"}, {"measurement": "infarction volume", "result": "decrease in infarction volume"}]}]}
